Active and inactive are the calls of the source.
Columns and labels:
[1] = HepG2 cell cytotoxicity, dose response, cytotoxicity control for Shn3 inhibitor project, CellTiter-Glo, cherry-picked (AID 624134); format: functional, cell-based
[2] = Shn3 3'UTR reporter inhibitors, dose response, cell-based, Clone20 osteoblasts, firefly luciferase, cherry-picked (AID 624132); format: functional;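 note: firefly luciferase luminescence from reporter carrying the Shn3 3'UTR in osteoblasts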
[3] = control 3'UTR Renilla luciferase suppression, dose response, counter-screen for Shn3 inhibitor project, cell-based, Clone20-Shn3RL, cherry-picked (AID 624133); format: functional
[4] = system: INS1; experiment: beta cell apoptosis inhibitors, cytokine rescue, dose response, luminescence, retest (AID 449756); format: functional, cell-based; conditions: Rattus norvegicus;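 note: cell death triggered by IL-1 beta plus TNF-alpha plus IFN-gamma mixture; protective hits raise ATP signal compared with cytokine alone wells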
[5] = biological target: T1, Estrogen receptor (Homo sapiens, UniProt P03372);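 note: potency for inhibiting coactivator peptide recruitment to the receptor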
T1 sequence (P03372 whole entry): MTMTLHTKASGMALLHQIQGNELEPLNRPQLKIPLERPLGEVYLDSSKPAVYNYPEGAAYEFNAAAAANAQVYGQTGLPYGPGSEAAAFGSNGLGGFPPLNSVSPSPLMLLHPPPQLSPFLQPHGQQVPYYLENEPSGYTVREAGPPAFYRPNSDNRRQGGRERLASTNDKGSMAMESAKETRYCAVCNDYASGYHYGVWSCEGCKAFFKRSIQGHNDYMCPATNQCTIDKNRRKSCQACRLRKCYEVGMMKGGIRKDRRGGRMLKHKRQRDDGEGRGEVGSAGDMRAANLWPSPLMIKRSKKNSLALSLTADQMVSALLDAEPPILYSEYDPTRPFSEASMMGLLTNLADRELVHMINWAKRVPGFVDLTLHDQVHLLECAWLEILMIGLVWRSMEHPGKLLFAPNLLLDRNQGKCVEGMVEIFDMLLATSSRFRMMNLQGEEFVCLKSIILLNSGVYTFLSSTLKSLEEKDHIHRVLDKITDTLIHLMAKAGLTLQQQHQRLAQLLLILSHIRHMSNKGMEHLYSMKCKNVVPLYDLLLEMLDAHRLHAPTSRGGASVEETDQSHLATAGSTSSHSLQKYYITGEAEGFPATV

[6] = intracellular Trypanosoma cruzi inhibitors in host cells – cell-based, plate reader, cherry-pick samples, set 3, dose response (AID 651818); format: functional;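 note: compounds incubated with infected cells for about four days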
[7] = biological target: T2, High affinity choline transporter 1 (Homo sapiens, UniProt Q9GZV3); experiment: CHT inhibitors, dose response, cell-based, 5-point CRC, membrane potential dye (AID 504840); format: functional
T2 sequence (Q9GZV3 whole entry): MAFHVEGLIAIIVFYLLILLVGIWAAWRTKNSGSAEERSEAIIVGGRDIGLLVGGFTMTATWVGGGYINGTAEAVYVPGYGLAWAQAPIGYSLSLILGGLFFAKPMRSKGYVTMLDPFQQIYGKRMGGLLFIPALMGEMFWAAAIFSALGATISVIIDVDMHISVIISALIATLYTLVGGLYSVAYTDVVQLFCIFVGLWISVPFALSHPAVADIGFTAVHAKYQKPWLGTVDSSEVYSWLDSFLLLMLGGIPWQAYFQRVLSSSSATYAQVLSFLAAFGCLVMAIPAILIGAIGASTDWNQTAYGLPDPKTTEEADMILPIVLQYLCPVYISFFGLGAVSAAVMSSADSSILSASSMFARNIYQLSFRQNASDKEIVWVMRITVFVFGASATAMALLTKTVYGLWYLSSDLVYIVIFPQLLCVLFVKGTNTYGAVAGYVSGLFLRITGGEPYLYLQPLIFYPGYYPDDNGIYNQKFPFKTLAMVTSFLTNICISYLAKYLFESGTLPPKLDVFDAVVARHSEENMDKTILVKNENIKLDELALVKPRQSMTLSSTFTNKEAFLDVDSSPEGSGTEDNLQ

[8] = biological target: T3, Fatty acid synthase (Homo sapiens, UniProt P49327); experiment: FAS thioesterase domain inhibitors, dose response, biochemical, kinetic fluorescence intensity (AID 624326); format: functional;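 note: rate of fluorescence rise from hydrolysis of a fluorogenic O-methyl fluorescein ester substrate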
[9] = biological target: T3, Fatty acid synthase; experiment: FAS thioesterase domain inhibitors, dose response, biochemical, endpoint fluorescence intensity, uHTS hits (AID 624327); format: functional;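 note: fluorescence from hydrolysis of an O-methyl fluorescein acyl ester substrate by the enzyme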
[10] = biological target: Heat shock protein HSP 90-alpha (Homo sapiens, UniProt P07900); format: functional, organism-based
[11] = biological target: Genome polyprotein (dengue virus type 2, UniProt P29990); experiment: Dengue-2 NS5 methyltransferase inhibitors, primary screen, biochemical, confirmation dose response (AID 588689); format: functional
[12] = biological target: T4, Heat shock factor protein 1 (Mus musculus, UniProt P38532); experiment: HSF1 potentiators in luciferase reporter cells, confirmation, cell-based, NIH3T3, luminescence, dose retest (AID 435004); format: functional;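 note: stress induced by proteasome inhibitor MG132 added 30 min after compound; luciferase reporter driven by HSF1 response element in NIH3T3 cells; actives raise luminescence as potentiators of the MG132 stress response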
T4 sequence (P38532 whole entry): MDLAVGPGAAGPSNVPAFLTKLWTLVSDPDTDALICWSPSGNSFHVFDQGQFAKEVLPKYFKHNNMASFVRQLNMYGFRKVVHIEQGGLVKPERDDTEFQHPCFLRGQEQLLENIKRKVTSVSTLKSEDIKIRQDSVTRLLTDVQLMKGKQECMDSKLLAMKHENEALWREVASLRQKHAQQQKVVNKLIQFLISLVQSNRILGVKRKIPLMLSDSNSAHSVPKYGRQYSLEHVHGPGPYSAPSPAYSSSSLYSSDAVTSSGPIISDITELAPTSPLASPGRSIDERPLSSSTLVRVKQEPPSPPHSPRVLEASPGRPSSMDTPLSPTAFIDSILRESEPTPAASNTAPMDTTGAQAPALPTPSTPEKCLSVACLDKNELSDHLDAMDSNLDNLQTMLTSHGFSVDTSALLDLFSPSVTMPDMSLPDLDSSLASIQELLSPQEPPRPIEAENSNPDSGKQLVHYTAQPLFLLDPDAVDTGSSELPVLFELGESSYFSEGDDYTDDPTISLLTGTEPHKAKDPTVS

[13] = inhibitors of firefly luciferase expression or activity, dose response, H4 neuroglioma cells, luminescence (AID 1990); format: functional, cell-based
[14] = inhibitors of SNCA 5'UTR-driven reporter translation, confirmation, H4 neuroglioma cells, luminescence (AID 1988); format: functional, cell-based
[15] = biological target: Large T antigen (Simian virus 40, UniProt P03070); format: functional, Betapolyomavirus macacae;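 note: Confirmatory-stage PubChem screen for compounds that inhibit SV40 T antigen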
[16] = Luminescence Cell-Based Dose Response HTS to Identify Inhibitors of 5'UTR Stem-Loop Driven Prion Protein mRNA Translation in H4 Neuroglioblastoma Cells. [Related pubchem assays: 1827 (Project Summary), 1813 (Primary HTS)]; format: functional
[17] = biological target: Induced myeloid leukemia cell differentiation protein Mcl-1 (Homo sapiens, UniProt Q07820); format: functional
Chain of Induced myeloid leukemia cell differentiation protein Mcl-1 (Q07820 whole entry): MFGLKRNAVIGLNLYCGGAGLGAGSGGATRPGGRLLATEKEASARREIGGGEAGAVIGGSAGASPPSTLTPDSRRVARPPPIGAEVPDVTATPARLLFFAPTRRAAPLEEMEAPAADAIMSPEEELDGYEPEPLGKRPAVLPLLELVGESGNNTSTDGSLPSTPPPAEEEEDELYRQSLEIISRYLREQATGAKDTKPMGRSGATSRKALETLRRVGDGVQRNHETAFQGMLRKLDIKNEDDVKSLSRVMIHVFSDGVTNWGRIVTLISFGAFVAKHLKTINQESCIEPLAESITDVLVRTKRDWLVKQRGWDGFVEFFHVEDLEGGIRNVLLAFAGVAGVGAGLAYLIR

Chain of Genome polyprotein (P29990 2492-3391 limits assumed): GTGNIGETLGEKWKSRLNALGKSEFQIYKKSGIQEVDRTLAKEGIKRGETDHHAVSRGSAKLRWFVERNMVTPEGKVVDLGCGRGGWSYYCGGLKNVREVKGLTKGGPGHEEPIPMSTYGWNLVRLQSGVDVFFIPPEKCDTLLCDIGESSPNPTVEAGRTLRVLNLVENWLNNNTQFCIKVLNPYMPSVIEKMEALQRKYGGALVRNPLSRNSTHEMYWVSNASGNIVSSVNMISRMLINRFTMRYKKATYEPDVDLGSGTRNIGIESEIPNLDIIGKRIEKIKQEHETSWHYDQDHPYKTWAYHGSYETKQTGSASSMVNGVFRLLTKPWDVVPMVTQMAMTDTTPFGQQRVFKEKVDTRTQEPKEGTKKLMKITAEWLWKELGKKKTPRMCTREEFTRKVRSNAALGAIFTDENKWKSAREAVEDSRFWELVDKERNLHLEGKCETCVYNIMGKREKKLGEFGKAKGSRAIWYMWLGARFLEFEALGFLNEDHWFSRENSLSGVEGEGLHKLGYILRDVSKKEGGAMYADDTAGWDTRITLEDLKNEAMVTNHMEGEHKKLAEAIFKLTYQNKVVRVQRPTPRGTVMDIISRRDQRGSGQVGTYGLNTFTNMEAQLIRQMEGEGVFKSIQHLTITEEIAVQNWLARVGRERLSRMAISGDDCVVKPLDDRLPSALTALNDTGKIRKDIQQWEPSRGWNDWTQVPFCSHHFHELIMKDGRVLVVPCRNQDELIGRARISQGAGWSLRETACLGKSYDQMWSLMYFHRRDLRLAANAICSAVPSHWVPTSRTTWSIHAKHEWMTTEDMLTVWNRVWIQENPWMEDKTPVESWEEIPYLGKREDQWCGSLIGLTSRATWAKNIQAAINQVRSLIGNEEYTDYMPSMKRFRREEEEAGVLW
T3 sequence (P49327 whole entry, the tested form may be a part): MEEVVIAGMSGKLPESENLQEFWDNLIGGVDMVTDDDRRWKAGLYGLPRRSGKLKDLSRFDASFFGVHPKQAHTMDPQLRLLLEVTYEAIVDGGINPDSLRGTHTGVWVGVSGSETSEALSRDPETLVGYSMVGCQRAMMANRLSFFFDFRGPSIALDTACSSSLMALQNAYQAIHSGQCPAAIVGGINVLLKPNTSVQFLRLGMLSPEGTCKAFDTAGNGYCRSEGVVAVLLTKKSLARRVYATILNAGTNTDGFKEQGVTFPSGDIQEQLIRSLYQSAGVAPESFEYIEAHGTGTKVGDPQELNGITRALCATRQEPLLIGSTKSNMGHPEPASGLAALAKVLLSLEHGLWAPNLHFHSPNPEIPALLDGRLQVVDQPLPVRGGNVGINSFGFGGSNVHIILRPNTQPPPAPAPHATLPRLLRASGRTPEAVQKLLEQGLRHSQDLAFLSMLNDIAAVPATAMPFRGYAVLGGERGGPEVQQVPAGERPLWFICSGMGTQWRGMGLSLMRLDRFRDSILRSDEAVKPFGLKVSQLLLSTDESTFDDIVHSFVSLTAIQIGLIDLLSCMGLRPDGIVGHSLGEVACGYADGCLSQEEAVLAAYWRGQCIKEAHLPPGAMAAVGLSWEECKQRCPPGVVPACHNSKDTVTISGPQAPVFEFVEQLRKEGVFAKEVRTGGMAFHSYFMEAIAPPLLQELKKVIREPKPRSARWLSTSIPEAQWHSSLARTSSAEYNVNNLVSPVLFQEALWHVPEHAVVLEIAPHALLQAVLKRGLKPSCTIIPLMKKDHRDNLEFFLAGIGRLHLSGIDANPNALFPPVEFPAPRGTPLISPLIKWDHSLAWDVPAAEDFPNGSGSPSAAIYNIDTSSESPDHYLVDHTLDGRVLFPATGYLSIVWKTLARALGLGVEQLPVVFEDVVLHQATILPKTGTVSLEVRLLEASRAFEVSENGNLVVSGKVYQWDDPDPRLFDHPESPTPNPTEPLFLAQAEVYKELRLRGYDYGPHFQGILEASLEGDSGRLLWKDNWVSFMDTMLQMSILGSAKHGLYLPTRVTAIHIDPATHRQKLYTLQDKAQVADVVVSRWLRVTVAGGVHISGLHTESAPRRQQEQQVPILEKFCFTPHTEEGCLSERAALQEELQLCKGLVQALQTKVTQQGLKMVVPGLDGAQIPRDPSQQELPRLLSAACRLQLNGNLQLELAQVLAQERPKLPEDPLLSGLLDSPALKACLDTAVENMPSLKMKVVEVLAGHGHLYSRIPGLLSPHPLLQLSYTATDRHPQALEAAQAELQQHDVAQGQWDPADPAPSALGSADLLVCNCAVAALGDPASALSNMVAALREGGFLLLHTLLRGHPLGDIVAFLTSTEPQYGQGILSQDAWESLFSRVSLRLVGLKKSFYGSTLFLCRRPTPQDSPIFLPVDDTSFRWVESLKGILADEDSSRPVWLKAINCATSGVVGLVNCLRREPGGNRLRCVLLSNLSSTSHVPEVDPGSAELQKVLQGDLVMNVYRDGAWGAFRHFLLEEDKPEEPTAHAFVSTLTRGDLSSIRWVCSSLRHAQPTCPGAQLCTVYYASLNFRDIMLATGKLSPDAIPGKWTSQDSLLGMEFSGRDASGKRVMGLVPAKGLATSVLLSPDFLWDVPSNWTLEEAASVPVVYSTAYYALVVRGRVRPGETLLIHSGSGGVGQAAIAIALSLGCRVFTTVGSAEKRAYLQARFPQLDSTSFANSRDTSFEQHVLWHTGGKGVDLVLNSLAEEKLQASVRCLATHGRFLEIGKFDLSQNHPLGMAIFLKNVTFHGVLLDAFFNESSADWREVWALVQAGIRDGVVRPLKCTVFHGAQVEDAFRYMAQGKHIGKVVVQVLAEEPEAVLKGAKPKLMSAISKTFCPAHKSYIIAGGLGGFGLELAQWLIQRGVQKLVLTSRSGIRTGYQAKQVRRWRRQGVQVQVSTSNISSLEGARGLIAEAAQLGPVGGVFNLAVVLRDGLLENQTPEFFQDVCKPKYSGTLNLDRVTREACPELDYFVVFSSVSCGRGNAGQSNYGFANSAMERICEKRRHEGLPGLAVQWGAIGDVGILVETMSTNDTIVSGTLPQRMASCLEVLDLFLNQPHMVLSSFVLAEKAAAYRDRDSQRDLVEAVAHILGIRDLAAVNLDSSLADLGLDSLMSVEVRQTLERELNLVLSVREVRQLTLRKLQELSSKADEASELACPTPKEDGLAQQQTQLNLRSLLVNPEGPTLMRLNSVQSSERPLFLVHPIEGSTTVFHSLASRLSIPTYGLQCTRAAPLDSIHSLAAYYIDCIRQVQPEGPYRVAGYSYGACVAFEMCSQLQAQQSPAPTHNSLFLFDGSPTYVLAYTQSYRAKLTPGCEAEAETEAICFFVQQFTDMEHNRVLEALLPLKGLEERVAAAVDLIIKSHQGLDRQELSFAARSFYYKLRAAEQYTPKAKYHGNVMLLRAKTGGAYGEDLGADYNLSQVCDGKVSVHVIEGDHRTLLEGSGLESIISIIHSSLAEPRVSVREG
Chain of Large T antigen (P03070 whole entry): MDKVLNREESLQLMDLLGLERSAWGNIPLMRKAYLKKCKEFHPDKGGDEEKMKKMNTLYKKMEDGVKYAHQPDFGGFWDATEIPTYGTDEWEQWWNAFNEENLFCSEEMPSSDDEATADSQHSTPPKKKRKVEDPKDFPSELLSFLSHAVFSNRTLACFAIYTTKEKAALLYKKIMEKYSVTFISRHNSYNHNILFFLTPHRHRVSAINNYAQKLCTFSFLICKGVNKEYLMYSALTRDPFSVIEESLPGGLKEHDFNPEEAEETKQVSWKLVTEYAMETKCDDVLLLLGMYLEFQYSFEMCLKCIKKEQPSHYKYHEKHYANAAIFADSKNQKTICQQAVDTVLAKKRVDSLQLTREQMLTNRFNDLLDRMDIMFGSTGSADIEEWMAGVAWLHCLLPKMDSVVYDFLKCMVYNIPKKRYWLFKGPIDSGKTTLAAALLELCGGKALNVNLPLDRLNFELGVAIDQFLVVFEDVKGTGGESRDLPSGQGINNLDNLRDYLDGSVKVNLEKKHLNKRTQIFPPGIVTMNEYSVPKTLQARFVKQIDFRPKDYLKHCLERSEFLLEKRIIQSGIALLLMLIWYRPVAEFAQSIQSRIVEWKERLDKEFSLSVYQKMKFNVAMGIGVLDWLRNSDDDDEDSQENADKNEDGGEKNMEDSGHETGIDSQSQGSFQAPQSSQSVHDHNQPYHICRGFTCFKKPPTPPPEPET

For `O=S(=O)(c1ccc(Cl)cc1)N1CCN(c2ncnc3sccc23)CC1`, the AC50 [1] was 32.2 µM (active), the AC50 [2] was 3.04 µM (active) and the AC50 [3] was 5.25 µM (active). For the same molecule, the AC50 [4] was 5.44 µM (active).
In the case of `O=C(Cn1c(=O)n(Cc2ccco2)c(=O)c2c3c(sc21)CCCCC3)c1ccccc1`, the IC50 [5] is reported as > 50 µM (not active).
For `C[C@@H]1CCCCO[C@@H](CN(C)Cc2ccc(Cl)c(Cl)c2)[C@@H](C)CN([C@H](C)CO)C(=O)c2cc(NC(=O)Cc3ccccc3)ccc2O1`, the AC50 [6] was 4.04 µM (active).
In the case of `Cc1cc([N+](=O)[O-])c(NCCCCCCO)c([N+](=O)[O-])c1`, the IC50 [7] is reported as 12.6 µM (active).
With `C[C@@H]1CCCCO[C@H](CN(C)C(=O)Nc2ccc(C(F)(F)F)cc2)[C@@H](C)CN([C@H](C)CO)C(=O)c2cc(NC(=O)CCC(F)(F)F)ccc2O1` the AC50 [6] was 3.67 µM (active).
With `COc1ccc(NS(=O)(=O)c2ccc(C(=O)N3CCCCCC3)cc2)cc1` the AC50 [1] was 48.4 µM (active), the AC50 [2] was 4.51 µM (active) and the AC50 [3] was 9.07 µM (active).
With `C[C@H](CO)N1C[C@H](C)[C@@H](CN(C)Cc2ccc(-c3ccccc3)cc2)Oc2c(NC(=O)c3ccncc3)cccc2C1=O` the AC50 [6] was 0.08 µM (active).
For `C[C@@H]1CN([C@@H](C)CO)C(=O)c2cccc(NC(=O)c3nc4ccccc4s3)c2O[C@@H]1CN(C)Cc1ccccc1`, the AC50 [6] was 4.84 µM (active).
For `COc1cccc(C2CC(c3ccc(C)cc3)=NN2C(=O)c2ccccc2F)c1OC` (configuration not stated), the AC50 [2] was 36 µM (active) and the AC50 [3] was 30.4 µM (active).
With `O=C(/C=C/c1cccc([N+](=O)[O-])c1)NCc1ccc2c(c1)OCO2` the IC50 [8] was 2.72 µM (active) and the IC50 [9] was 2.33 µM (active).
For `CCC(C)c1ccc(NC(S)=NCc2ccccn2)cc1` (configuration not stated), the IC50 [7] was 13.2 µM (active).
With `CC(C)CCNc1nc(N)c([N+](=O)[O-])c(N2CCCCCC2)n1` the AC50 [1] was 47.5 µM (active), the AC50 [2] was 8.79 µM (active) and the AC50 [3] was 5.43 µM (active).
With `C[C@@H]1CN([C@H](C)CO)C(=O)Cc2cc(NC(=O)Nc3ccc4c(c3)OCO4)ccc2O[C@H]1CN(C)CC1CCCCC1` the AC50 [6] was 7 µM (active).
For `F[B-](F)(F)c1cc2cc(Br)ccc2s1`, the AC50 [10] was 4.02 µM (active).
For `O[C@H]1C[C@H](c2ccc(Cl)cc2)N(CC2CCCCC2)C[C@@H]1n1cc(C2CC2)nn1`, the IC50 [8] was 13.1 µM (active) and the IC50 [9] was 12 µM (active).
For `O=c1oc(-c2ccccc2F)nc2scc(-c3ccccc3)c12`, the IC50 [8] was 0.638 µM (active) and the IC50 [9] was 1.19 µM (active).
With `CC(C)COc1ccc(C(=O)N/C(=C/c2cccc([N+](=O)[O-])c2)C(=O)O)cc1` the IC50 [8] was 9.3 µM (active) and the IC50 [9] was 14.2 µM (active).
For `COc1ccc(-c2nnn(CC(=O)Nc3ccc4c(c3)OCCO4)n2)cc1OC`, the AC50 [1] was > 70 µM (inactive) and the AC50 [3] was 21.2 µM (active).
In the case of `CCOc1ccc(C(c2c(O)n(C)c(SC)nc2=O)c2c(O)n(C)c(SC)nc2=O)cc1`, the IC50 [11] is reported as 43 µM (active).
In the case of `C[C@@H]1CCCCO[C@@H](CN(C)Cc2ccc(C(=O)Nc3ccccc3N)cc2)[C@@H](C)CN([C@H](C)CO)C(=O)c2cc(NS(=O)(=O)c3ccc(Cl)cc3)ccc2O1`, the AC50 [6] is reported as 3.39 µM (active).
In the case of `Cc1cccc(C)c1NC(=O)CN(C)C(=O)c1cccc(S(=O)(=O)N2CCN(c3ccc(F)cc3)CC2)c1`, the AC50 [1] is reported as > 70 µM (inactive), the AC50 [2] is reported as 2.2 µM (active) and the AC50 [3] is reported as 13 µM (active).
With `Cc1[nH]n(-c2ccccc2)c(=O)c1N=Nc1ccccc1C(=O)O` the IC50 [11] was 58 µM (active).
In the case of `Cc1ccc(-n2nnnc2SCC(=O)Nc2cccc(NC(=O)c3ccco3)c2)cc1C`, the IC50 [5] is reported as 14.9 µM (active).
In the case of `C[C@@H]1CN([C@H](C)CO)C(=O)Cc2cc(NS(=O)(=O)c3ccc(Cl)cc3)ccc2O[C@@H]1CN(C)Cc1ccc(-c2ccccc2)cc1`, the AC50 [6] is reported as 2.76 µM (active).
With `COc1ccc(CNC(=O)c2cc(-c3cccs3)on2)cc1` the IC50 [5] was 27.7 µM (active).
In the case of `COCCCNC(=O)c1ccc2c(=O)n(Cc3ccc4c(c3)OCO4)c(=S)[nH]c2c1`, the IC50 [5] is reported as 42 µM (not active).
With `COc1ccccc1NS(=O)(=O)c1cc(C(=O)N2CC(C)CC(C)C2)ccc1C` (configuration not stated) the EC50 [12] was > 260 µM (inactive) and the AC50 [10] was 5.54 µM (active).
With `CCn1c(SCC(=O)Nc2ccc(NC(=O)c3ccco3)c(OC)c2)nc2ccccc2c1=O` the IC50 [5] was 35.8 µM (not active).
In the case of `C=CCOC(=O)C1=C(C)N=c2s/c(=C3\C(=O)N(CC(=O)O)c4ccccc43)c(=O)n2C1c1ccc(OC)cc1` (configuration not stated), the IC50 [11] is reported as 59.4 µM (active), the EC50 [13] is reported as > 120 µM (not active) and the EC50 [14] is reported as 74 µM (active). The IC50 [15] was 49.1 µM (active), the EC50 [16] was > 120 µM (not active) and the IC50 [17] was 3 µM (active).
For `COc1ccc(S(=O)(=O)N(C)C[C@H]2Oc3ccc(NC(=O)Nc4cccc5ccccc45)cc3C(=O)N([C@@H](C)CO)C[C@H]2C)cc1`, the AC50 [6] was 4.38 µM (active).
With `CCCCSc1nnc2c(n1)[nH]c1ccccc12` the IC50 [5] was > 50 µM (not active).
